SMILES strings stand for the structures.

The target of this test is T1, leukotriene (LTD4) induced contraction of guinea pig tracheal tissues (Cavia porcellus, UniProt Q2NNR5).
T1 construct: Guinea pig (adult male albino Hartley strain) tracheal spiral strips; from tissue; host or cells: guinea pig (adult male albino Hartley strain) tracheal spiral strips
T1 sequence (Q2NNR5 1-340): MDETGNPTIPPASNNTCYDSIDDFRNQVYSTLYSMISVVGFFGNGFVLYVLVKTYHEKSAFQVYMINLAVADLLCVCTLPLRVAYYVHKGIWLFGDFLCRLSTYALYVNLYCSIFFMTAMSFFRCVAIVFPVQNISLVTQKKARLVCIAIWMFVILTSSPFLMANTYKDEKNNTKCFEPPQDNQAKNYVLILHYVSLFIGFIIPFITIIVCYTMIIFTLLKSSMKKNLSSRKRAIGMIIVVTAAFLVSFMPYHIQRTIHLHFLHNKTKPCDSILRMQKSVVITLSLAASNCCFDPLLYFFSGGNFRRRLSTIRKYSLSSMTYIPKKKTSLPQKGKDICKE
Nature of the test: Inhibition of LTD4-induced contraction of guinea pig tracheal tissues in vitro. It counts as cell-based, Guinea pig (adult male albino Hartley strain). The conditions noted are these: LTD4 cumulative concentration-response; guinea pig tracheal spiral strips; 30 min pretreatment with test compound; meclofenamic acid 1 μM; EC30 relative to carbachol 10 μM; read-out: pA2 (converted). The procedure:
The leukotriene antagonist activity of the compounds of formula (II) is measured by the ability of the compound to inhibit leukotriene induced contraction of guinea pig tracheal tissues in vitro. The following methodology was employed:
In vitro: Guinea pig (adult male albino Hartley strain) tracheal spiral strips of approximate dimensions 2 to 3 mm cross-sectional width and 3.5 cm length were bathed in modified Krebs buffer in jacketed 10 ml tissue bath and continously aerated with 95% O2 /5% CO2. The tissues were connected via silk suture to force displacement transducers for recording isometric tension. The tissues were equilibrated for 1 hr., pretreated for 15 minutes with meclofenamic acid (1 μM) to remove intrinsic prostaglandin responses, and then pretreated for an additional 30 minutes with either the test compound or vehicle control. A cumulative concentration-response curve for LTD4 on triplicate tissues was generated by successive increases in the bath concentration of the LTD4. In order to minimize intertissue variability, the contractions elicited by LTD4 were standardized as a percentage of the maximum response obtained to a reference agonist, carbachol (10 μM).
Calculations: The averages of the triplicate LTD4 concentration-response curves both in the presence and absence of the test compound were plotted on log graph paper. The concentration of LTD4 needed to elicit 30% of the contraction elicited by carbachol was measured and defined as the EC30. The pA2 value for the test compound as determined by the following equations: [formula]
For `CCCCCCCCCCCC/C=C\C(CO)SCCC(=O)O` (stereo not drawn) [2-[(2-Carboxyethyl)thio]-3(Z)-hexadecen-1-ol], the Kb was 5010 nM. The same measure for `CCCCCCCCCCCC/C=C\C(SCCC(=O)O)C(=O)O` (stereo not drawn) [2-[(2-Carboxyethyl)thio]-3(Z)-hexadecenoic acid]: 1000 nM; for `CCCCCCCCCCCC/C=C\C(SCCC(=O)O)C(O)CC(=O)O` (stereo not drawn) [3-Hydroxy-4-[(2-carboxyethyl)thio]-5(Z)-octadecenoic acid]: 794 nM.

For the origin of these results see US4533747A, “Leukotriene antagonists intermediates” (SmithKline Beckman Corporation, priority 1983, dated 1985).
